Experimental data taken from US20010036949A1, “Pharmaceutical composition and method of treatment of diseases of cognitive dysfunction in a mammal” (priority 2000, published 2001).

Experiments:
human m2 receptor = target: T1, human m2 receptor (Homo sapiens, UniProt P08172); assay: Inhibition of forskolin-stimulated cAMP accumulation, m2 receptor; format: cell-based; settings: standard agonist, typical value, 5 uM forskolin
T1 sequence (P08172 1-466): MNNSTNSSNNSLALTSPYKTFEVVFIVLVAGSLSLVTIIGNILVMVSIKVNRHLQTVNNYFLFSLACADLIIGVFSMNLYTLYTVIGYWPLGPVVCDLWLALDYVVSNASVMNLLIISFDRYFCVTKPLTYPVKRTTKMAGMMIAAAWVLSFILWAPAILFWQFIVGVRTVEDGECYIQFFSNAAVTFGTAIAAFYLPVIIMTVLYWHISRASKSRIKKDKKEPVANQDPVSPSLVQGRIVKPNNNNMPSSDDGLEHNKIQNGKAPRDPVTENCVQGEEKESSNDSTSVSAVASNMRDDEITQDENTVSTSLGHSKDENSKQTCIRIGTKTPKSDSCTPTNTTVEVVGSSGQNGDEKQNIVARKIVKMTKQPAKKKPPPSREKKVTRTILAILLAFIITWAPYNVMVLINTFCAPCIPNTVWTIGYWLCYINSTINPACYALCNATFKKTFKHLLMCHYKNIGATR
Method: (§1) The activity of muscarinic receptors can be determined according to the following protocol. Chinese hamster ovary cells (CHO-K1) stably transformed to express human m1-m5_receptors can be obtained from Dr. Tom Bonner (Laboratory of Cell Biology, National Institute of Mental Health, Building 36, Rm 3A-17, National Institute of Health, Bethesda, Md. 20892). Cells are maintained in Dulbecco's Modified Eagle Medium containing 10% fetal calf serum and harvested at confluence by brief incubation in Ca++/Mg++_free phosphate-buffered saline containing 4 mM EDTA.
(§2) Functional responses at m2 and m4 receptors can be determined by measuring inhibition of forskolin-stimulated cAMP accumulation. Harvested cells are preincubated (15 minutes at 20-22° C.) with 3-isobutyl-1-methyl-xanthine ([…]; 0.2 mM) and then incubated (10 minutes at 20-22° C.) in a HEPES-buffered Krebs solution with test compounds in the presence of 5 uM forskolin. The reaction is stopped by the addition of 10N acetic acid and the CAMP content of dried supernatants is determined using a scintillation proximity assay (Amersham).

human m4 receptor = target: T2, human m4 receptor (Homo sapiens, UniProt P08173); assay: Inhibition of forskolin-stimulated cAMP accumulation, m4 receptor; format: cell-based; settings: standard agonist, typical value, 5 uM forskolin
T2 construct: host or cells: CHO-K1
T2 sequence (P08173 1-479): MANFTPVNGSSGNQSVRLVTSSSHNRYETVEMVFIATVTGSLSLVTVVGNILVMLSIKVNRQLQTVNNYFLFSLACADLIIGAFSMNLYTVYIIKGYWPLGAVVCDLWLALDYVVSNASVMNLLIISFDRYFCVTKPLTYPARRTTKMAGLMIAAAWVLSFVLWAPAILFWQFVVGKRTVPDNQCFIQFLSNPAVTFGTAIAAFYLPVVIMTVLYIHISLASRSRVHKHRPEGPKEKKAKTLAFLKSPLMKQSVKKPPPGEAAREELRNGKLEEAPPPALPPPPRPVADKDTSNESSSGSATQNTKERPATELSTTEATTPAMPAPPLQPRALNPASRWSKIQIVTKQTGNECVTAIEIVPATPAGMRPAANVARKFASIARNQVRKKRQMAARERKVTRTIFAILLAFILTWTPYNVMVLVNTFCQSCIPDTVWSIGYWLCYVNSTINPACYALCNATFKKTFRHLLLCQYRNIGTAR
Method: as §1, §2

## C[N+](C)(C)CCOC(N)=O [Carbachol]
Human m2 receptor
  inhibition of the forskolin-stimulated cAMP levels: 60-80%
Human m4 receptor
  inhibition of the forskolin-stimulated cAMP levels: 60-80%
